Each block holds one compound with its values, some of them ahead of it.
Assays:
SMYD3 [1] = biological target: T1, SMYD3 (Homo sapiens (Human), UniProt Q9H7B4); test: SMYD3 biochemical assay (SPA, 3H-SAM methylation of MEKK2 protein substrate)
In short: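 Native full-length human SMYD3 (E. coli-expressed, tags removed) was preincubated with compound for 30 min at room temperature in 25 mM Tris-Cl pH 8.0, 1 mM TCEP, 0.005% BSG, 0.005% Tween 20. Reaction was started with 3H-SAM plus GST-MEKK2, quenched with 100 uM unlabeled SAM, and read by SPA scintillation counting.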

SMYD3 [2] = biological target: T1, SMYD3; test: SMYD3 cell assay (Trimethyl-MEKK2 In-Cell Western in 293T/17 cells); format: cell-based
In short: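 In-Cell Western ratio of trimethyl-Lys260 MEKK2 to anti-flag signal; percent inhibition from DMSO and maximum-inhibition controls, IC50 by non-linear regression, triplicates.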

[3] = IC50 values are an average of n = 1 to n = 50, read-out: SMYD3 Biochem IC50*
[4] = IC50 values are an average of n = 1 to n = 50, read-out: SMYD3 Cell IC50*
[5] = Table 1A, IC50 values are an average of n = 1 to n = 50, read-out: SMYD3 Cell IC50
[6] = average of n = 1 to n = 50, read-out: SMYD3 Biochem IC50
[7] = average of n = 1 to n = 50, read-out: SMYD3 Cell IC50
[8] = read-out: SMYD3 Biochem IC50 (μM)*
[9] = read-out: SMYD3 Cell IC50 (μM)*
[10] = 293T/17 cells, read-out: SMYD3 Cell IC50 (μM)*
[11] = Table 2A, read-out: SMYD3 Biochem IC50
[12] = Table 2A, read-out: SMYD3 Cell IC50

T1 sequence (Q9H7B4 whole entry): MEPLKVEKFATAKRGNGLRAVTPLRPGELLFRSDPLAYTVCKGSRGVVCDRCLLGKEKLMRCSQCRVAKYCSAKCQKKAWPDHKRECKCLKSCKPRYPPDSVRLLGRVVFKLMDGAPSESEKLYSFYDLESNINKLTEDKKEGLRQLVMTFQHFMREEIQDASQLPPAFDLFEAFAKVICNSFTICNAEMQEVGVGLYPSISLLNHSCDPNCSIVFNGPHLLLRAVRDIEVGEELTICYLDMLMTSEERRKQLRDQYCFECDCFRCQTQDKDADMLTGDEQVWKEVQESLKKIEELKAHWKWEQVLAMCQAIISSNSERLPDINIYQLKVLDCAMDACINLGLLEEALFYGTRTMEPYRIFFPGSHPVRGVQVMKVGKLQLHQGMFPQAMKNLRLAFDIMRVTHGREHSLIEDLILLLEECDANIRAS

SMILES: CN1CC2CCC(C1)N2S(=O)(=O)N1[C@@H]2CC[C@H]1C[C@@H](NC(=O)c1cc(C3CC3)on1)C2 [compound 977, 5-cyclopropyl-N-((1R,3r,5S)-8-((3-methyl-3,8-diazabicyclo[3.2.1]octan-8-yl)sulfonyl)-8-azabicyclo[3.2.1]octan-3-yl)isoxazole-3-carboxamide]
- IC50 (SMYD3 [1]; [3]): 0.107 µM
- IC50 (SMYD3 [2]; [4]): 0.742 µM

SMILES: O=C(NC1CC2CCCC(C1)N2S(=O)(=O)CC1CCCNC1)c1cc(C2CC2)on1 (centres unmarked) [compound 488, 5-cyclopropyl-N-(9-((piperidin-3-ylmethyl)sulfonyl)-9-azabicyclo[3.3.1]nonan-3-yl)isoxazole-3-carboxamide]
- IC50 (SMYD3 [1]; read-out: SMYD3 Biochem IC50): 0.0451 µM
- IC50 (SMYD3 [2]; [5]): 0.857 µM

SMILES: Nc1cc(S(=O)(=O)N2[C@@H]3CCC[C@H]2C[C@@H](NC(=O)c2cc(C4CC4)on2)C3)ccn1 [compound 730, N-((1R,3r,5S)-9-((2-aminopyridin-4-yl)sulfonyl)-9-azabicyclo[3.3.1]nonan-3-yl)-5-cyclopropylisoxazole-3-carboxamide]
- IC50 (SMYD3 [1]; [6]): 0.413 µM
- IC50 (SMYD3 [2]; [7]): 1.32 µM

SMILES: O=C(N[C@@H]1C[C@H]2CC[C@@H](C1)N2S(=O)(=O)CC1CCCNC1)c1cc(C2CC2)on1 (stereo partly drawn) [compound 721, 5-cyclopropyl-N-((1R,3s,5S)-8-((piperidin-3-ylmethyl)sulfonyl)-8-azabicyclo[3.2.1]octan-3-yl)isoxazole-3-carboxamide]
- IC50 (SMYD3 [1]; [6]): 0.322 µM
- IC50 (SMYD3 [2]; [7]): 1.83 µM

- IC50 (SMYD3 [1]; [6]): 0.533 µM
- IC50 (SMYD3 [2]; [7]): 2.64 µM
SMILES: O=C(N[C@H]1CCN(S(=O)(=O)CC2CCCN2)[C@@H](Cc2ccccc2)C1)c1cc(C2CC2)on1 (stereo partly drawn) [compound 745, N-((2S,4S)-2-benzyl-1-((pyrrolidin-2-ylmethyl)sulfonyl)piperidin-4-yl)-5-cyclopropylisoxazole-3-carboxamide]

SMILES: O=C(N[C@H]1C[C@H]2CC[C@@H](C1)N2S(=O)(=O)N1CCC2(CCCN2)CC1)c1cc(C2CC2)on1 [compound 835, N-((1R,3r,5S)-8-((1,8-diazaspiro[4.5]decan-8-yl)sulfonyl)-8-azabicyclo[3.2.1]octan-3-yl)-5-cyclopropylisoxazole-3-carboxamide]
- IC50 (SMYD3 [1]; read-out: SMYD3 Biochem IC50*): 0.00463 µM
- IC50 (SMYD3 [2]; read-out: SMYD3 Cell IC50*): 0.118 µM

- IC50 (SMYD3 [1]; [8]): 0.0716 µM
- IC50 (SMYD3 [2]; [9]): 0.947 µM
SMILES: C[C@@H]1C[C@H](NC(=O)c2cc(C3CC3)on2)CCN1C(=O)[C@H]1CC[C@H](N)CC1 [compound 57, N-((2R,4R)-1-((1r,4R)-4-aminocyclohexane-1-carbonyl)-2-methylpiperidin-4-yl)-5-cyclopropylisoxazole-3-carboxamide]

- IC50 (SMYD3 [1]; Table 1A, IC50 values are an average of n = 1 to n = 50, read-out: SMYD3 Biochem IC50): 1.06 µM
- IC50 (SMYD3 [2]; [5]): > 10 µM
SMILES: CC(C)[C@H]1C[C@H](NC(=O)c2cc(C3CC3)on2)CCN1S(=O)(=O)CCCN [compound 503, N-((2R,4R)-1-((3-aminopropyl)sulfonyl)-2-isopropylpiperidin-4-yl)-5-cyclopropylisoxazole-3-carboxamide]

- IC50 (SMYD3 [1]; read-out: SMYD3 Biochem IC50*): 0.00121 µM
- IC50 (SMYD3 [2]; read-out: SMYD3 Cell IC50*): 0.0239 µM
SMILES: C[C@H]1C[C@@H](NC(=O)c2cc(C3CC3)on2)CCN1S(=O)(=O)N1CCC(N(C)CCO)CC1 [compound 780, 5-cyclopropyl-N-((2S,4S)-1-((4-((2-hydroxyethyl)(methyl)amino)piperidin-1-yl)sulfonyl)-2-methylpiperidin-4-yl)isoxazole-3-carboxamide]

SMILES: COCCN1C2CCC1CN(S(=O)(=O)N1[C@@H]3CC[C@H]1C[C@@H](NC(=O)c1cc(C4CC4)on1)C3)C2 [compound 955, 5-cyclopropyl-N-((1R,3r,5S)-8-((8-(2-methoxyethyl)-3,8-diazabicyclo[3.2.1]octan-3-yl)sulfonyl)-8-azabicyclo[3.2.1]octan-3-yl)isoxazole-3-carboxamide]
- IC50 (SMYD3 [1]; read-out: SMYD3 Biochem IC50*): 0.0592 µM
- IC50 (SMYD3 [2]; read-out: SMYD3 Cell IC50*): 0.373 µM

- IC50 (SMYD3 [1]; [8]): 2.27 µM
- IC50 (SMYD3 [2]; [10]): > 40 µM
SMILES: O=C(N[C@@H]1CCN(C(=O)CC2CCNCC2)[C@H](Cc2ccccc2)C1)c1cc(C2CC2)on1 [compound 349, N-((2R,4R)-2-benzyl-1-(2-(piperidin-4-yl)acetyl)piperidin-4-yl)-5-cyclopropylisoxazole-3-carboxamide]

SMILES: COCCNc1ccc(S(=O)(=O)N2CC[C@H](NC(=O)c3cc(C4CC4)on3)C[C@@H]2C)cn1 [compound 413, 5-cyclopropyl-N-((2S,4S)-1-((6-((2-methoxyethyl)amino)pyridin-3-yl)sulfonyl)-2-methylpiperidin-4-yl)isoxazole-3-carboxamide]
- IC50 (SMYD3 [1]; [8]): 1.48 µM
- IC50 (SMYD3 [2]; [10]): 4.51 µM

SMILES: CC1CN(S(=O)(=O)N2[C@@H]3CC[C@H]2C[C@@H](NC(=O)c2cc(C4CC4)on2)C3)C(C)CN1C (stereo partly drawn) [compound 941, 5-cyclopropyl-N-((1R,3r,5S)-8-((2,4,5-trimethylpiperazin-1-yl)sulfonyl)-8-azabicyclo[3.2.1]octan-3-yl)isoxazole-3-carboxamide]
- IC50 (SMYD3 [1]; read-out: SMYD3 Biochem IC50*): 0.0479 µM
- IC50 (SMYD3 [2]; read-out: SMYD3 Cell IC50*): 0.341 µM

- IC50 (SMYD3 [1]; [8]): 0.0142 µM
- IC50 (SMYD3 [2]; [10]): 3.85 µM
SMILES: C[C@H]1C[C@@H](NC(=O)c2cc(C3CC3)on2)CCN1S(=O)(=O)c1ccc(N(C)CCN)nc1 [compound 461, N-((2S,4S)-1-((6-((2-aminoethyl)(methyl)amino)pyridin-3-yl)sulfonyl)-2-methylpiperidin-4-yl)-5-cyclopropylisoxazole-3-carboxamide]

SMILES: O=C(N[C@H]1C[C@H]2CC[C@@H](C1)N2S(=O)(=O)[C@H]1CCCN(CCO)C1)c1cc(C2CC2)on1 [compound 985, 5-cyclopropyl-N-((1R,3S,5S)-8-(((S)-1-(2-hydroxyethyl)piperidin-3-yl)sulfonyl)-8-azabicyclo[3.2.1]octan-3-yl)isoxazole-3-carboxamide]
- IC50 (SMYD3 [1]; [3]): 0.155 µM
- IC50 (SMYD3 [2]; [4]): 0.708 µM

SMILES: O=C(N[C@H]1C[C@H]2CC[C@@H](C1)N2S(=O)(=O)NC1CC2(CNC2)C1)c1cc(C2CC2)on1 [compound 594, N-((1R,3r,5S)-8-(N-(2-azaspiro[3.3]heptan-6-yl)sulfamoyl)-8-azabicyclo[3.2.1]octan-3-yl)-5-cyclopropylisoxazole-3-carboxamide]
- IC50 (SMYD3 [1]; [11]): 0.012 µM
- IC50 (SMYD3 [2]; [12]): 0.669 µM

- IC50 (SMYD3 [1]; [8]): 0.274 µM
- IC50 (SMYD3 [2]; [9]): 2.24 µM
SMILES: CN[C@H]1CC[C@H](C(=O)N2CCC(NC(=O)c3cc(C4CC4)on3)C[C@H]2C)CC1 (stereo partly drawn) [compound 124, 5-cyclopropyl-N-((2R)-2-methyl-1-((1r,4R)-4-(methylamino)cyclohexane-1-carbonyl)piperidin-4-yl)isoxazole-3-carboxamide]

- IC50 (SMYD3 [1]; read-out: SMYD3 Biochem IC50*): 0.0121 µM
- IC50 (SMYD3 [2]; read-out: SMYD3 Cell IC50*): 0.157 µM
SMILES: CN[C@H]1CC[C@H](S(=O)(=O)N2CC[C@@H](NC(=O)c3cc(C4CC4)on3)[C@@H](C)C2)CC1 [compound 885, 5-cyclopropyl-N-((3S,4R)-3-methyl-1-(((1r,4S)-4-(methylamino)cyclohexyl)sulfonyl)piperidin-4-yl)isoxazole-3-carboxamide]

SMILES: O=C(N[C@H]1C[C@H]2CC[C@@H](C1)N2S(=O)(=O)N1CC2(CNC2)C1)c1cc(C2CC2)on1 [compound 580, N-((1R,3r,5S)-8-((2,6-diazaspiro[3.3]heptan-2-yl)sulfonyl)-8-azabicyclo[3.2.1]octan-3-yl)-5-cyclopropylisoxazole-3-carboxamide]
- IC50 (SMYD3 [1]; [11]): 0.0097 µM
- IC50 (SMYD3 [2]; [12]): 0.0889 µM

- IC50 (SMYD3 [1]; read-out: SMYD3 Biochem IC50*): 0.0146 µM
- IC50 (SMYD3 [2]; read-out: SMYD3 Cell IC50*): 0.177 µM
SMILES: CN[C@H]1CC[C@@H](S(=O)(=O)N2CC[C@@H](NC(=O)c3cc(C4CC4)on3)[C@@H](C)C2)CC1 [compound 900, 5-cyclopropyl-N-((3S,4R)-3-methyl-1-(((1s,4R)-4-(methylamino)cyclohexyl)sulfonyl)piperidin-4-yl)isoxazole-3-carboxamide]

- IC50 (SMYD3 [1]; [8]): 0.122 µM
- IC50 (SMYD3 [2]; [10]): 1.04 µM
SMILES: C[C@@H]1C[C@H](NC(=O)c2cc(C3CC3)on2)CCN1C(=O)c1ccc(C(C)(C)N)cc1 [compound 368, N-((2R,4R)-1-(4-(2-aminopropan-2-yl)benzoyl)-2-methylpiperidin-4-yl)-5-cyclopropylisoxazole-3-carboxamide]

SMILES: O=C(NC1CC2CCCC(C1)N2S(=O)(=O)CCN1CCCC1)c1cc(C2CC2)on1 (centres unmarked) [compound 442, 5-cyclopropyl-N-(9-((2-(pyrrolidin-1-yl)ethyl)sulfonyl)-9-azabicyclo[3.3.1]nonan-3-yl)isoxazole-3-carboxamide]
- IC50 (SMYD3 [1]; [8]): 1.11 µM
- IC50 (SMYD3 [2]; [10]): 4.55 µM

- IC50 (SMYD3 [1]; [8]): 0.208 µM
- IC50 (SMYD3 [2]; [9]): 1.35 µM
SMILES: C[C@@H]1CC(NC(=O)c2cc(C3CC3)on2)CCN1C(=O)[C@H]1CC[C@H](N)CO1 (stereo partly drawn) [compound 118, N-((2R)-1-((2R,5S)-5-aminotetrahydro-2H-pyran-2-carbonyl)-2-methylpiperidin-4-yl)-5-cyclopropylisoxazole-3-carboxamide]

- IC50 (SMYD3 [1]; [11]): 0.0178 µM
- IC50 (SMYD3 [2]; [12]): 1.17 µM
SMILES: CC(C)N1CCC(CS(=O)(=O)N2CC[C@@H](NC(=O)c3cc(C4CC4)on3)C[C@H]2C)CC1 [compound 607, 5-cyclopropyl-N-((2R,4R)-1-(((1-isopropylpiperidin-4-yl)methyl)sulfonyl)-2-methylpiperidin-4-yl)isoxazole-3-carboxamide]

SMILES: C[C@H](NC1CCN(S(=O)(=O)N2[C@@H]3CC[C@H]2C[C@@H](NC(=O)c2cc(C4CC4)on2)C3)CC1)c1ccccc1 [compound 927, 5-cyclopropyl-N-((1R,3S,5S)-8-((4-(((S)-1-phenylethyl)amino)piperidin-1-yl)sulfonyl)-8-azabicyclo[3.2.1]octan-3-yl)isoxazole-3-carboxamide]
- IC50 (SMYD3 [1]; read-out: SMYD3 Biochem IC50*): 0.0309 µM
- IC50 (SMYD3 [2]; read-out: SMYD3 Cell IC50*): 0.403 µM

Reference: patent US10577363B2, “Substituted piperidine compounds” (EPIZYME, INC., priority 2014, dated 2020)
